From patent US20230192700A1, “PYRAZOLOPYRAZINES ACTING ON CANCERS VIA INHIBITION OF CDK12” (Bayer Aktiengesellschaft, priority 2020, published 2023)
Where two headings read alike, the source gives them in different places.

Key:
[1] = test system: MDA-MB-231 human breast cancer cells; assay: Proliferation assay MDA-MB-231 (crystal violet); type: cell-based; details: MDA-MB-231 cells, 4 days, median, read-out: Prolif-MDA MB231 IC50 - [mol/l] (median)
How it was run: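 Cells seeded at 4,000/well in medium with 10% fetal calf serum, dosed after 24 h (0.01-10 micromol/L, 0.1% DMSO) and grown 4 days. Crystal violet staining read at 595 nm, normalised to zero-point plate (0%) and untreated cells (100%); IC50 by 4-parameter fit.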

CDK12 = biological target: T1, CDK12 (Homo sapiens, UniProt Q9NYV4); assay: CDK12 nuclear protein level: immunofluorescence/high content analysis in CAL-120 cells; type: cell-based; details: for DC50: CAL-120 cells, 24 h, nuclear CDK12 staining intensity, median, read-out: CDK12 degradation IF DC50 - [mol/l] (median); for (IC50 CDK12 high ATP) to (Degradation DC50 CDK12) ratio: ratio of IC50 CDK12 hATP (2 mM ATP) to DC50 CDK12 (IF, CAL-120)
T1 construct: endogenous in cells; host or cells: CAL-120 human breast cancer cells (DSMZ ACC 459)
How it was run: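 Cells were exposed to compounds in dose-response for 24 h at 37 °C, then PFA-fixed, immunostained for CDK12 and counterstained with Hoechst before confocal imaging. Nuclear CDK12 intensity was normalized to DMSO and control. DC50 is the concentration giving 50% reduction of nuclear staining.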

T1 sequence (Q9NYV4 whole entry): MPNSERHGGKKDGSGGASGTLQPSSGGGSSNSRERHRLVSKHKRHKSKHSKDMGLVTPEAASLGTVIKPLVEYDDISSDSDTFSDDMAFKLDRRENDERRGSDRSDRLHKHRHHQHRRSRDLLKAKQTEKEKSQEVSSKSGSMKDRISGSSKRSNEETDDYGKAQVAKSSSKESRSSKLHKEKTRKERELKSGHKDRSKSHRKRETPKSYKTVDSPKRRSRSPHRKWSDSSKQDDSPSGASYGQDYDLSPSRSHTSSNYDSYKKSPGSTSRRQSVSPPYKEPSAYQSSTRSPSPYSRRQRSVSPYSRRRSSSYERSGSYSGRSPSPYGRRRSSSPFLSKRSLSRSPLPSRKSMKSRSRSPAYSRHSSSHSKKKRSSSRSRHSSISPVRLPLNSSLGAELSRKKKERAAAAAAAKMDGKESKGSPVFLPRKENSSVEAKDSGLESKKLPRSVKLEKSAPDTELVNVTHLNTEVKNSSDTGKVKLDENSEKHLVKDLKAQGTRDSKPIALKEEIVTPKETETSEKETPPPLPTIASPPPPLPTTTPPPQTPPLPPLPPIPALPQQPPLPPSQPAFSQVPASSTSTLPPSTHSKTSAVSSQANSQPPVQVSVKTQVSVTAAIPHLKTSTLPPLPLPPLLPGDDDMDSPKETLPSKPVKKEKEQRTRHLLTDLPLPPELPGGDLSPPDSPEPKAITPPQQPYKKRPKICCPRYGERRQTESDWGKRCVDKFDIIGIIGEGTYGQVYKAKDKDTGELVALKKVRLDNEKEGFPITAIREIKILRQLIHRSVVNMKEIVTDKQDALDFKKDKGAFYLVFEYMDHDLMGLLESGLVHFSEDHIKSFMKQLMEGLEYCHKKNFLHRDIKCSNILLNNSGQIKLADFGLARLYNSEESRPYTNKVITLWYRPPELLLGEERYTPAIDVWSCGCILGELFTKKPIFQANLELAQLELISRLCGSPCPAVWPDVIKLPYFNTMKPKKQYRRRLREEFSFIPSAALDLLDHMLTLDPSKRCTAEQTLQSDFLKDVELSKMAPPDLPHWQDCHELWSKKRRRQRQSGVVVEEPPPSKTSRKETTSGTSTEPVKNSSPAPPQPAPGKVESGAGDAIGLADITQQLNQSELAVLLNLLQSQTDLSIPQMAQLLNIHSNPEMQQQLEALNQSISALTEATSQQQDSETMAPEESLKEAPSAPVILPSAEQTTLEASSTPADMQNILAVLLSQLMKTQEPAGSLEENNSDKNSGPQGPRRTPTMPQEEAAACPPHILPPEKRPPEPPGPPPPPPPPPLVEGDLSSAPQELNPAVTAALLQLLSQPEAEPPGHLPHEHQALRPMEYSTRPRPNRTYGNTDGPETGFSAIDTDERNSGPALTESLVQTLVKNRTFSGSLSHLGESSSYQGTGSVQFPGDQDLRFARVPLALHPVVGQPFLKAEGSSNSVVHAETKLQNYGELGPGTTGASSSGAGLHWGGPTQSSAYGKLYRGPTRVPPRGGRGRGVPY
T1 sequence (O75909 whole entry partner): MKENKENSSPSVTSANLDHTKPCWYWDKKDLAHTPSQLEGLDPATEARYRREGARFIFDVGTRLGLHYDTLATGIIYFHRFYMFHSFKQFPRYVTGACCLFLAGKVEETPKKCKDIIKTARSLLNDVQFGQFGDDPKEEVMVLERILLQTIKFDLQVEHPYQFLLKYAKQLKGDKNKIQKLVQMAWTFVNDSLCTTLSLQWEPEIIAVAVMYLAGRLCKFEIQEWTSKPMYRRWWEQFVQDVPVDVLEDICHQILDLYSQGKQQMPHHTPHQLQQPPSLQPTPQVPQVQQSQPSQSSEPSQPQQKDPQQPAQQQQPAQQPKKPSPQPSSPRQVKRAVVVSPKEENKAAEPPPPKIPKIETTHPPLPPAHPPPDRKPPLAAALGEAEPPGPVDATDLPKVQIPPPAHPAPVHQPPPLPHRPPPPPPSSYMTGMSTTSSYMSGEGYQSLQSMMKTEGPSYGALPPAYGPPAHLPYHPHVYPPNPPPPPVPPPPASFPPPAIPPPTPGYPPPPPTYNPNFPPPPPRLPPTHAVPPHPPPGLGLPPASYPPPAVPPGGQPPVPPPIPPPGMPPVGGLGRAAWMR

SMILES | IC50 ([1]; Homo sapiens, MDA-MB-231, 96 h) | DC50 (CDK12) | (IC50 CDK12 high ATP) to (Degradation DC50 CDK12) ratio (CDK12) | IC50 [1]
Cc1c(F)ccc2[nH]c(CNc3nn(C4CCN(C)CC4)c4nc(C5CC5)cnc34)nc12 [Example 26, 6-cyclopropyl-N-[(5-fluoro-4-methyl-1H-benzimidazol-2-yl)methyl]-1-(1-methylpiperidin-4-yl)-1H-pyrazolo[3,4-b]pyrazin-3-amine] | 0.0222 µM | 0.016 µM | >509 | –
O[C@H]1C[C@H](Cn2nc(NCc3nc4ccccc4[nH]3)c3ncc(C4CC4)nc32)C1 [Example 70, trans-3-[(3-{[(1H-benzimidazol-2-yl)methyl]amino}-6-cyclopropyl-1H-pyrazolo[3,4-b]pyrazin-1-yl)methyl]cyclobutan-1-ol] | 0.174 µM | 0.0108 µM | – | –
c1ccc2[nH]c(CNc3nn(C4CCCC4)c4nc(C5CC5)cnc34)nc2c1 [Example 39, N-[(1H-benzimidazol-2-yl)methyl]-1-cyclopentyl-6-cyclopropyl-1H-pyrazolo[3,4-b]pyrazin-3-amine] | 0.315 µM | 0.0382 µM | >534 | –
c1ccc2[nH]c(CNc3nn(CC4CCC4)c4nc(C5CC5)cnc34)nc2c1 [Example 75, N-[(1H-benzimidazol-2-yl)methyl]-1-(cyclobutylmethyl)-6-cyclopropyl-1H-pyrazolo[3,4-b]pyrazin-3-amine] | 0.376 µM | 0.135 µM | >148 | –
CC1CC(n2nc(NCc3nc4ccccc4[nH]3)c3ncc(C4CC4)nc32)CCO1 (racemic) [Example 44, (±)-cis/trans-N-[(1H-benzimidazol-2-yl)methyl]-6-cyclopropyl-1-(2-methyloxan-4-yl)-1H-pyrazolo[3,4-b]pyrazin-3-amine] | 0.0379 µM | 0.0349 µM | – | –
Cc1c(Cl)ccc2[nH]c(CNc3nn(C4CCN(C)CC4)c4nc(C5CC5)cnc34)nc12 [Example 21, N-[(5-chloro-4-methyl-1H-benzimidazol-2-yl)methyl]-6-cyclopropyl-1-(1-methylpiperidin-4-yl)-1H-pyrazolo[3,4-b]pyrazin-3-amine] | 0.0113 µM | 0.0287 µM | >697 | –
Fc1ccc2[nH]c(CNc3nn(C4CCOCC4)c4nc(C5CC5)cnc34)nc2c1F [Example 32, 6-cyclopropyl-N-[(4,5-difluoro-1H-benzimidazol-2-yl)methyl]-1-(oxan-4-yl)-1H-pyrazolo[3,4-b]pyrazin-3-amine] | 0.00552 µM | 0.0115 µM | – | –
Cc1cnc2c(NCc3nc4ccccc4[nH]3)nn(C3CCN(C)CC3)c2n1 [Example 77, N-[(1H-benzimidazol-2-yl)methyl]-6-methyl-1-(1-methylpiperidin-4-yl)-1H-pyrazolo[3,4-b]pyrazin-3-amine] | 3 µM | 0.127 µM | >133 | –
CC(C)(O)Cn1nc(NCc2nc3ccccc3[nH]2)c2ncc(C3CC3)nc21 [Example 69, 1-(3-{[(1H-benzimidazol-2-yl)methyl]amino}-6-cyclopropyl-1H-pyrazolo[3,4-b]pyrazin-1-yl)-2-methylpropan-2-ol] | 0.311 µM | 0.0994 µM | >101 | –
COCCC(C)n1nc(NCc2nc3ccccc3[nH]2)c2ncc(C3CC3)nc21 (single isomer, unassigned; (+)) [Example 59, (+)-N-[(1H-benzimidazol-2-yl)methyl]-6-cyclopropyl-1-[4-methoxybutan-2-yl]-1H-pyrazolo[3,4-b]pyrazin-3-amine] | – | 0.0324 µM | >618 | 0.816 µM

These reach a lower DC50 (CDK12). Values come first.

IC50 ([1]; Homo sapiens, MDA-MB-231, 96 h) | DC50 (CDK12) | (IC50 CDK12 high ATP) to (Degradation DC50 CDK12) ratio (CDK12) | IC50 [1] | SMILES
0.0396 µM | 0.00853 µM | >2344 | – | Cc1cccc2[nH]c(CNc3nn(C4CCN(C)CC4)c4nc(C5CC5)cnc34)nc12 [Example 8, 6-cyclopropyl-N-[(4-methyl-1H-benzimidazol-2-yl)methyl]-1-(1-methylpiperidin-4-yl)-1H-pyrazolo[3,4-b]pyrazin-3-amine]
0.0383 µM | 0.00853 µM | >2344 | – | c1ccc2[nH]c(CNc3nn(C4CCNCC4)c4nc(C5CC5)cnc34)nc2c1 [Example 12, N-[(1H-benzimidazol-2-yl)methyl]-6-cyclopropyl-1-(piperidin-4-yl)-1H-pyrazolo[3,4-b]pyrazin-3-amine]
0.0671 µM | 0.00405 µM | – | – | CC1CC(n2nc(NCc3nc4ccccc4[nH]3)c3ncc(C4CC4)nc32)CCN1C (racemic) [Example 41, (±)-cis/trans-N-[(1H-benzimidazol-2-yl)methyl]-6-cyclopropyl-1-(1,2-dimethylpiperidin-4-yl)-1H-pyrazolo[3,4-b]pyrazin-3-amine]
0.00507 µM | 0.00843 µM | 2193 | – | CN1CCC(n2nc(NCc3nc4cc(C(F)(F)F)ccc4[nH]3)c3ncc(C4CC4)nc32)CC1 [Example 25, 6-cyclopropyl-1-(1-methylpiperidin-4-yl)-N-{[5-(trifluoromethyl)-1H-benzimidazol-2-yl]methyl}-1H-pyrazolo[3,4-b]pyrazin-3-amine]
0.0622 µM | 0.00953 µM | – | – | O[C@H]1C[C@H](n2nc(NCc3nc4ccccc4[nH]3)c3ncc(C4CC4)nc32)C1 [Example 43, trans-3-(3-{[(1H-benzimidazol-2-yl)methyl]amino}-6-cyclopropyl-1H-pyrazolo[3,4-b]pyrazin-1-yl)cyclobutan-1-ol]
